In US11207308B2, “Pharmaceutical compositions for combination therapy” (PRILENIA NEUROTHERAPEUTICS LTD., priority 2012, dated 2021):
Several values for one entry are separate records, joined by “and”; a condition that tells them apart may be missing. Identical values can stand only once. Entries after “also recorded” stand apart in the source; their conditions may differ. Like-named read-outs stand apart in the source and are kept apart here.

What was measured:
Male Sprague-Dawley rats [1] = assay: Spontaneous locomotor activity, dose-response in drug-naive rats; format: in vivo, rat; details: for Spontaneous locomotor activity, % of the vehicle control group mean: full hour of recording; for Spontaneous locomotor activity, period 15-60 minutes post dosing (in words) / Spontaneous locomotor activity, initial 15 min (in words): vs vehicle control; for Effect on spontaneous locomotor activity (in words): all doses tested, s.c., 60 min recording; for Spontaneous locomotor activity, initial 15 min (in words): initial 15 min of recording
Procedure: (§1) Rats weighed 160-180 g at the time of arrival.
(§2) The treatment groups consisted of Vehicle (saline; NaCl 0.9% v/w) and ACR16 tested at three doses (11; 33 and 100 μmol/kg).
(§3) KR104: Animals were allocated into five different treatment groups, n=4.
(§4) All compounds were injected s.c. four minutes before start of locomotor activity recording at a volume of 5 ml/kg.
During measurements of behavioural activity, a rat is put in a transparent acrylic cage with matted black floor (W×L×H, 41×41×30 cm) which in turn is placed in the activity monitor. […] Two rows are placed along the front and the side of the floor of the cage, at a 90 degree angle, and the third row is placed 10 cm above the floor to measure vertical activity. Photobeam sensors are spaced 2.5 cm apart.

striatal dopamine [2] = assay: Striatal dopamine (DA) tissue level (HPLC/EC), dose-response in naive rats; format: in vivo, rat; details: for DA striatum, dose-response in naive rats: mean ± SEM, percentage of vehicle control group mean
Procedure: as §1, §2, §3, §4
(§5) A digital sonifier (Branson Digital Sonifier 250-D) was used to homogenise tissue from the striatum and limbic region. […] All samples were centrifuged at 10.000 rpm for 10 minutes at +4° C. Cortex tissue was filtered in Munktell filter paper 5.5 cm quality 1 F. Tissue eluates were analysed with respect to tissue concentrations (ng/g tissue) of the monoamine transmitter substances (Norepinephrine (NA), dopamine (DA), 5-hydroxytryptamine (5-HT)) as well as their amine metabolites (normetanephrine (NM), 3-methoxytyramine (3-MT)) and acid metabolites ([…] (DOPAC), 5-hydrocyindoleacetic acid (5-HTAA), homovanillic acid (HVA)) by HPLC separations and electrochemical detection (HPLC/EC). Stock standards (DA, NA, 5-HT, 3-MT, DOPAC, HVA, HIAA, 500 μg/ml) and internal standard (AMDA 500 μg/ml) are prepared once every three months. 5-HT and 5HIAA are dissolved in milliQ water. DA, NA, DOPAC, NM, 3-MT and HVA are dissolved in 0.01 M HCl. 5-HT, 5-HIAA, NM and HVA are kept in fridge; DA, DOPAC, NA and 3-MT are kept in freezer.
(§6) Detection potentials relative to Ag/AgCl reference are 0.45 and 0.60V. […] Detection potentials relative to Ag/AgCl reference are 0.45 and 0.65V.

Male Sprague-Dawley rats [3] = details: for Locomotor activity, % of Tetrabenazine control mean: full hour of recording
Source text: No brain tissue was collected from this experiment. […] Each activity monitor consists of a quadratic metal frame equipped with photobeam sensors. […] Each activity monitor is equipped with three rows of infrared photobeam sensors, each row consisting of 16 sensors. […] Photobeam sensors are spaced 2.5 cm apart. Each activity monitor is fitted in an identical sound and light attenuating box (W×L×H—55×55×45) containing a weak house light and a fan. The computer software is written using object oriented programming (LabVIEW™, National instruments, Austin, Tex., USA). Behavioural data from each activity monitor, representing the position (horizontal center of gravity and vertical activity) of the animal at each time, are recorded at a sampling frequency of 25 Hz and collected using a custom written LABView™ application. The data from each recording session are stored and analyzed with respect to distance travelled. Each behavioural recording session lasts 60 min, starting approximately 4 min after the injection of test compound. The results are presented as counts/60 minutes, counts/45 minutes or counts/15 minutes, in arbitrary length units. Statistical comparisons are carried out using Student's t-test against the control group.

Arc mRNA [4] = assay: Arc gene expression (Arc mRNA, real-time PCR) in striatum and frontal cortex, interaction with Tetrabenazine
Arc mRNA [5] = assay: Arc gene expression (Arc mRNA, real-time PCR) in striatum and frontal cortex, dose-response studies; format: in vivo, rat
Procedure: as §1, §4
Reference genes are HPRT and cyclophilin.
Correct PCR products are confirmed by agarose gel electroforesis (2%) PCR products are purified with PCR purification kit from Qiagen (Valencia, Calif., USA). All genes are sequenced at MWG, Germany.
For the data shown in FIG. 6, the reverse transcription and PCR were performed as follows:
Reversed transcription is performed by using a ThermoScript kit (Invitrogen).
cDNA of Arc and two reference genes, hypoxanthine-guanine phosphoribosyltransferase (HPRT) and cyclophilin A, was amplified by real-time PCR in either a triplex reaction (Tetrabenazine studies) or three singleplex reactions (studies with Pridopidine and haloperidol).

striatal dopamine [6] = assay: Striatal dopamine (DA) tissue level (HPLC/EC), interaction with Tetrabenazine; details: percentage of Tetrabenazine control group mean
striatal DOPAC [7] = assay: Striatal DOPAC tissue level (HPLC/EC), interaction with Tetrabenazine; details: percentage of Tetrabenazine control group mean
striatal DOPAC [8] = assay: Striatal DOPAC tissue level (HPLC/EC), dose-response in naive rats; format: in vivo, rat; details: mean ± SEM, percentage of vehicle control group mean
Procedure: as §1, §2, §3, §4, §5, §6

[9] = 33 μmol/kg s.c. coadministered with Tetrabenazine 0.64 mg/kg
[10] = 100 μmol/kg s.c. coadministered with Tetrabenazine 0.64 mg/kg
[11] = 33 μmol/kg s.c. together with Tetrabenazine 0.64 mg/kg
[12] = 100 μmol/kg s.c. together with Tetrabenazine 0.64 mg/kg
[13] = 0.64 mg/kg s.c., vs vehicle control

Q: `CCCN1CCC(c2cccc(S(C)(=O)=O)c2)CC1` [Pridopidine, 4-(3-Methanesulfonyl-phenyl)-1-propyl-piperidine] was tested. Which “Spontaneous locomotor activity, % of the vehicle control group mean” value (Male Sprague-Dawley rats [1]; 33 μmol/kg s.c.) did it give?
A: 138%

Q: What about the “Spontaneous locomotor activity, period 15-60 minutes post dosing (in words)” value (Male Sprague-Dawley rats [1]) of the same compound?
A: no significant effects were observed

Q: What about the “Effect on spontaneous locomotor activity (in words)” value (Male Sprague-Dawley rats [1]) of the same compound?
A: no inhibitory effect on spontaneous locomotor activity

Q: And the “Spontaneous locomotor activity, initial 15 min (in words)” value (Male Sprague-Dawley rats [1])?
A: a significant increase (P<0.05) was seen for the 11 μmol/kg Pridopidine dose group

Q: And the “DA striatum, dose-response in naive rats” value (striatal dopamine [2]; 11 μmol/kg s.c.)?
A: 104 ± 3%

Q: And the “DA striatum, dose-response in naive rats” value (striatal dopamine [2]; 33 μmol/kg s.c.)?
A: 101 ± 3%

Q: And the “DA striatum, dose-response in naive rats” value (striatal dopamine [2]; 100 μmol/kg s.c.)?
A: 73 ± 4 %

Q: What about the “Locomotor activity, % of Tetrabenazine control mean” value (Male Sprague-Dawley rats [3]; 33 μmol/kg s.c. combined with Tetrabenazine 0.64 mg/kg) of the same compound?
A: 135%

Q: And the “Locomotor activity, % of Tetrabenazine control mean” value (Male Sprague-Dawley rats [3]; 100 μmol/kg s.c. combined with Tetrabenazine 0.64 mg/kg)?
A: 137%

Q: What about the “Locomotor activity in Tetrabenazine treated rats, 15-60 min (in words)” value (Male Sprague-Dawley rats [3]; 15-60 min period, combined with Tetrabenazine 0.64 mg/kg, vs Tetrabenazine control) of the same compound?
A: this reversing effect reached significance for the Pridopidine 100 μmol/kg dose group

Q: What about the “Effect on Tetrabenazine induced locomotor activity reduction (in words)” value (Male Sprague-Dawley rats [3]; combined with Tetrabenazine 0.64 mg/kg s.c.) of the same compound?
A: reversed the behavioural inhibition induced by Tetrabenazine

Q: And the “Locomotor activity in Tetrabenazine treated rats, 0-15 min (in words)” value (Male Sprague-Dawley rats [3]; first 15 min, combined with Tetrabenazine 0.64 mg/kg, vs Tetrabenazine control)?
A: this reversing effect reached significance for the Pridopidine 100 μmol/kg dose group

Q: What about the “Frontal cortex Arc mRNA, % of the Tetrabenazine control group mean” value (Arc mRNA [4]; [9]) of the same compound?
A: 125%

Q: What about the “Striatal Arc, % of the Tetrabenazine control group mean” value (Arc mRNA [4]; [9]) of the same compound?
A: 144%

Q: And the “Frontal cortex Arc mRNA, % of the Tetrabenazine control group mean” value (Arc mRNA [4]; [10])?
A: 193%

Q: And the “Striatal Arc, % of the Tetrabenazine control group mean” value (Arc mRNA [4]; [10])?
A: 207%

Q: And the “Arc mRNA in the frontal cortex, % of the vehicle control group mean” value (Arc mRNA [5]; 33 μmol/kg s.c.)?
A: 149%

Q: And the “Arc mRNA in the striatum, % of the control group mean” value (Arc mRNA [5]; 33 μmol/kg s.c.)?
A: 168%

Q: And the “Arc mRNA in the frontal cortex, % of the vehicle control group mean” value (Arc mRNA [5]; 100 μmol/kg s.c.)?
A: 222%

Q: What about the “Arc mRNA in the striatum, % of the control group mean” value (Arc mRNA [5]; 100 μmol/kg s.c.) of the same compound?
A: 253%

Q: What about the “DA striatum, interaction with Tetrabenazine” value (striatal dopamine [6]; [11]) of the same compound?
A: 91 ± 11%

Q: And the “DA striatum, interaction with Tetrabenazine” value (striatal dopamine [6]; [12])?
A: 98 ± 8%

Q: And the “DOPAC striatum, interaction with Tetrabenazine” value (striatal DOPAC [7]; [11])?
A: 123 ± 8 ^ %

Q: What about the “DOPAC striatum, interaction with Tetrabenazine” value (striatal DOPAC [7]; [12]) of the same compound?
A: 155% and 155 ± 4 %

Q: What about the “DOPAC striatum, dose-response in naive rats” value (from here on “DOPAC striatum, dose-response”) (striatal DOPAC [8]; 11 μmol/kg s.c.) of the same compound?
A: 117 ± 5 %

Q: And the “DOPAC striatum, dose-response” value (striatal DOPAC [8]; 33 μmol/kg s.c.)?
A: 178 ± 7 %

Q: And the “DOPAC striatum, dose-response” value (striatal DOPAC [8]; 100 μmol/kg s.c.)?
A: 236 ± 17 %

Q: Which results are given for `COc1cc2c(cc1OC)C1CC(=O)C(CC(C)C)CN1CC2` (stereo not drawn) [Tetrabenazine, (SS,RR)-3-Isobutyl-9,10-dimethoxy-1,3,4,6,7,11b-hexahydro-pyrido[2,1-a]isoquinolin-2-one]?
A: Locomotor activity, Tetrabenazine control group vs. vehicle treated controls (in words) (Male Sprague-Dawley rats [1]; 0.64 mg/kg s.c., full hour (P<0.001), 0-15 min and 15-60 min (P<0.01), interaction experiment with Pridopidine): significant decrease; Spontaneous locomotor activity, % of the vehicle control group mean (Male Sprague-Dawley rats [1]; 1.1 mg/kg s.c.): 40%; Spontaneous locomotor activity, period 15-60 minutes post dosing (in words) (Male Sprague-Dawley rats [1]): significant effects (P<0.05) were observed at 0.64 and 1.1 mg/kg; Effect on spontaneous locomotor activity (in words) (Male Sprague-Dawley rats [1]): dose dependently inhibited spontaneous locomotor activity; Spontaneous locomotor activity, initial 15 min (in words) (Male Sprague-Dawley rats [1]): significant reductions (P<0.05) were seen both for the 1.1 and 0.37 mg/kg; DA striatum, dose-response in naive rats (striatal dopamine [2]; 0.37 mg/kg s.c.): 48 ± 2 %; DA striatum, dose-response in naive rats (striatal dopamine [2]; 0.64 mg/kg s.c.): 33 ± 3 %; Striatal dopamine, % of vehicle control group mean (striatal dopamine [2]; 0.64 mg/kg, the dose used in the interaction experiments, throughout the studies performed): approximately 50%; DA striatum, dose-response in naive rats (striatal dopamine [2]; 1.1 mg/kg s.c.): 20 ± 2 %; Arc mRNA in the frontal cortex, % of control group mean (Arc mRNA [5]; 0.64 mg/kg s.c., trend, p=0.14): 83%; Frontal cortex Arc mRNA, Tetrabenazine alone in the interaction experiments (in words) (Arc mRNA [5]; [13]): significant decrease; also recorded: tended to decrease; Striatal Arc mRNA, Tetrabenazine alone in the interaction experiments (in words) (Arc mRNA [5]; [13]): no significant effect; Arc mRNA in the frontal cortex, % of the vehicle control group mean (Arc mRNA [5]; 1.1 mg/kg s.c.): 66%; Arc mRNA in the striatum, % of the vehicle control group mean (Arc mRNA [5]; 1.1 mg/kg s.c.): 147%; DOPAC striatum, dose-response in naive rats (striatal DOPAC [8]; 0.37 mg/kg s.c.): 144 ± 8 %; DOPAC striatum, dose-response in naive rats (striatal DOPAC [8]; 0.64 mg/kg s.c.): 208 ± 14 %; DOPAC striatum, dose-response in naive rats (striatal DOPAC [8]; 1.1 mg/kg s.c.): 263 ± 19 %
